Patent US20100215759A1 (priority 2009, published 2010)
Read-outs that look alike come from different tables or passages of the source.

Columns and labels:
CB1 receptors = biological target: T1, CB1 receptors (Mus musculus, UniProt P47746); test: biochemical; format: binding
T1 construct: the complete brain (excluding the cerebellum) and the spleen were quickly dissected and kept in ice; from tissue; host or cells: mouse brain (excluding cerebellum), membrane preparation
Description: (§1) The affinity of the synthesized compounds towards the CB1 and CB2 cannabinoidergic receptors was evaluated in vitro by radioreceptor binding studies using the method reported hereinunder.
(§2) The technique of the receptor binding allows to establish if, and with which affinity and specificity, a specific compound binds to a particular receptor. To evaluate the affinity of a specific compound to a particular receptor it is necessary to challenge in a particular tissue preparation wherein those specific receptors are present the compound to be tested with a radioactive labelled compound whose affinity for the same receptors is known. […] The amount of radioactivity present in the receptor-compound complex allows furthermore to estimate with great accuracy the amount of compound bound to the receptor. By said method it is therefore possible to establish quickly the affinity of a new compound towards a specific receptor and thus to determine its pharmacological activity. With the same experimental protocol it is possible to evaluate the affinity of the compound towards other receptors and thus establish its specificity degree toward said other receptors.
(§3) The food and water were ad libitum.
(§4) The procedure adopted, based on the use of the compound [^3H]-CP-55,940 (New England Nuclear, Boston, Mass., USA), requires the use of the mouse brain as biological tissue for the evaluation of the affinity towards the CB1 receptors and of the mouse spleen for the affinity assay for the CB2 receptors.
(§5) The animals were sacrificed by cervical dislocation and the complete brain (excluding the cerebellum) and the spleen were quickly dissected and kept in ice.
(§6) The tissue was homogenized in 15 volumes (weight/volume) of TME buffer (50 Mm Tris, 1 mM EDTA and 3 mM MgCl2, pH 7.4) by an Ultra-Turrax and subsequently centrifuged for 10 minutes at 1086×g in a centrifuge refrigerated at 4° C. The recovered supernatant was centrifuged at 45,000×g for 30 minutes at 4° C. by using a Beckman SW41 rotor and the obtained pellet was resuspended in 50 volumes of TME.
(§7) The thus obtained membranes (50-80 μg of proteins) were incubated in the presence of 1 nM of [^3H]-CP55.940 for 1 hour at 30° C. in a final volume of 0.5 ml of TME buffer containing 5 mg/ml of bovine serum albumin (BSA). The non specific binding was measured in the presence of CP55.940 at a 1 μM concentration.
(§8) All the experiments were carried out in polypropylene test tubes pretreated with Sigma-Cote (Sigma Chemical Co. Ltd., Poole, UK) for reducing non specific binding.
(§9) In order to determine the competitive inhibition binding curves, eight different concentrations of each compound were used.
(§10) Incubation was stopped by addition of TME buffer (at 4° C.) containing 5 mg/ml of BSA, and subsequent filtration under vacuum by Whatman GFC filters pretreated with 0.5% of polyethylamine (PEI) and by using a filtering device (Brandell, Gaithersburg, Md., USA). The filters were washed 3 times with […] of Tris HCl buffer (pH 7.4, 4° C.) containing 1 mg/ml of BSA and separately placed in plastic vials containing 4 ml of scintillating liquid (Ultima Gold MV, Packard).
(§11) The radioactivity present in the filters was determined by a scintillator spectrophotometer (Tricarb® 2100, Packard, Meridien, USA).
(§12) Protein determination was carried out by the Bradford method by using the protocol and the reactants supplied by Bio-Rad (Milano, Italy).

CB2 receptors = biological target: T2, CB2 receptors (Mus musculus, UniProt P47936); test: biochemical; format: binding
T2 construct: the complete brain (excluding the cerebellum) and the spleen were quickly dissected and kept in ice; from tissue; host or cells: mouse spleen, membrane preparation
Description: as §1, §2, §3, §4, §5, §6, §7, §8, §9, §10, §11, §12

[1] = test system: mouse deferent vessel (vas deferens); test: Ex-vivo model: electrically induced contractions of the isolated deferent vessel (vas deferens); design: species or system albino CD1 mice; conditions: for Effect on the curve % of inhibition of the contractions/logarithm of the WIN 55212-2 concentration: concentrations lower than or equal to 1×10^−5 M; for Inhibition of the contractions induced by the electric stimulus: concentrations lower than or equal to 1×10^−6 M
From the text: The use of the isolated deferent vessel organ, as a highly sensitive basic system in an ex-vivo model for evaluating the activity of agonist CB1 compounds, has been described by Pertwee et al. in Br. J. Pharmacol., 105:980-4, 1992. This model has been used also to evaluate the properties of antagonist CB1 compounds and to distinguish antagonist CB1 derivatives from inverse agonist CB1 compounds (Rinaldi-Carmona et al., FEBS Lett., 350:240-4, 1994; Pertwee et al., Eur. J. Pharmacol., 456:99-106, 2002). […] This effect is correlated to the action on the prejunctional neuronal CB1 receptors with the consequent release inhibition, induced by electric stimuli, of contractile neurotransmitters (noradrenaline and ATP) (Schlicker and Kathmann, Trends Pharmacol. Sci., 22:565-72, 2001). The inhibition of the contractions induced by the electric stimulus on the deferent vessel in the presence of agonist (or partial agonist) CB1 compounds are expressed as % of contraction inhibition. Said % contraction inhibition is calculated by the ratio between the contraction amplitude determined in the presence of a given concentration of the compound and that detected in its absence (basal value). The curve of the “% of contraction inhibition” as a function of the logarithm of the concentration of agonist (or partial agonist) CB1 compounds, is sigmoidal. The use of the model for the evaluation of antagonist CB1 compounds is based on the evaluation of their efficacy in inhibiting the action of the deferent vessel of agonist (or partial agonist) CB1 compounds. The inhibition is expressed by a shifting towards the right of the curves % of inhibition of contractions/logarithm of the concentration of the agonist CB1 compound, with increasing the concentration of the antagonist CB1 compound.
As reported in the literature, the experimentation has been carried out by using albino CD1 mice weighing 30-40 grams. The mice deferent vessel was recovered and transferred into an instrument for separated organs supplied by the Firm Ugo Basile (Comerio, Italy). The initial tension was of 0.5 g. The procedure adopted is reported in Pertwee et al. in Br. J. Pharmacol., 110:1483-1490, 1993. In particular the procedure and instruments as described by S. Ruiu et al. in J.P.E.T., Vol. 306, 2003, 363-370, have been used.
In a subsequent experiment it was shown that the compound activity was antagonized by the antagonist CB1 compound N-piperidinyl-[8-chloro-1-(2,4-dichlorophenyl)-1,4,5,6-tetrahydrobenzo[6,7]cyclohepta[1,2-c]pyrazol-3-carboxamide], described by S. Ruiu et al. in J.P.E.T., Vol. 306, 2003, 363-370. The experiment was carried out by adding the antagonist (concentration in bath 1 nM) 20 minutes before the first addition of the compound of the invention.

[2] = mouse brain membranes, 1 nM [3H]-CP55.940, read-out: CB1 (brain) Ki
[3] = mouse spleen membranes, 1 nM [3H]-CP55.940, read-out: CB2 (spleen) Ki

T1 sequence (P47746 whole entry): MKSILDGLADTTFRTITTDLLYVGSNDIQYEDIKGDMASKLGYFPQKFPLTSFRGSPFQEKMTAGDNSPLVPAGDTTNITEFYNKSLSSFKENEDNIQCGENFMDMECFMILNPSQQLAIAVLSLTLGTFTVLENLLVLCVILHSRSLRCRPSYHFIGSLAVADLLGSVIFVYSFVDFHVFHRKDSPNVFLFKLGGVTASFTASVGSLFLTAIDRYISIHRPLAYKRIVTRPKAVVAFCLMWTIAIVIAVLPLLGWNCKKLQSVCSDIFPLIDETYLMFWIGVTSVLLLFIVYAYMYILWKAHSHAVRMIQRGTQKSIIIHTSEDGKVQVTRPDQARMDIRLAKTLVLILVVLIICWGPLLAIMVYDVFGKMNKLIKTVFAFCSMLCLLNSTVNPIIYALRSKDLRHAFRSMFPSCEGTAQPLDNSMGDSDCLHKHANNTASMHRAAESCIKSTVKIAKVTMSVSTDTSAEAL
T2 sequence (P47936 whole entry): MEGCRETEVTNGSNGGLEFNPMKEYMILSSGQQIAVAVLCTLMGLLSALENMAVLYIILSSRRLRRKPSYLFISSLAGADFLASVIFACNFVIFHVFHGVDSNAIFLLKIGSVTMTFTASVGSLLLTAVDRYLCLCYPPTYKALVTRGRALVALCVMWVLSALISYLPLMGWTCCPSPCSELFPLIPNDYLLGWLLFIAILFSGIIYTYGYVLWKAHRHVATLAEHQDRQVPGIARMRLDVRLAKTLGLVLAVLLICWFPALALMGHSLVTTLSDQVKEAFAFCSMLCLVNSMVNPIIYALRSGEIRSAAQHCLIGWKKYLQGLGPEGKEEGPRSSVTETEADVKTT

| SMILES | Ki (CB1 receptors) [µM] | Ki (CB2 receptors) [µM] | Antagonism of the compound activity by a CB1 antagonist ([1]; antagonist N-piperidinyl-[8-chloro-1-(2,4-dichlorophenyl)-1,4,5,6-tetrahydrobenzo[6,7]cyclohepta[1,2-c]pyrazol-3-carboxamide] 1 nM in bath, added 20 minutes before) | Functional character at CB1 ([1]; vas deferens model) | Ki (CB1 receptors; [2]) [µM] | Ki (CB2 receptors; [3]) [µM] | Effect on the curve % of inhibition of the contractions/logarithm of the WIN 55212-2 concentration [1] | Inhibition of the contractions induced by the electric stimulus [1] |
| --- | --- | --- | --- | --- | --- | --- | --- | --- |
| Cc1ccc(Cn2nc(C(=O)NCC3CCC4CC3C4(C)C)c3c2-c2sc(C)cc2C3)cc1 (stereo not drawn) [Example 3.1, N-myrtanyl-6-methyl-1-(4′-methylbenzyl)-1,4-dihydrothieno[3′,2′:4,5]cyclopenta[1,2-c]pyrazol-3-carboxamide] | 0.0836 ± 0.0146 | 0.0483 ± 0.0026 | antagonized | CB1 agonist |  |  |  |  |
| CCOC(=O)c1nn(-c2ccc(S(N)(=O)=O)cc2)c2c1CCc1sccc1-2 [Compound (XA), 1-(4′-sulphonamidophenyl)-4,5-dihydro-1H-thieno[2,3-g]indazol-3-ethyl carboxylate] |  |  |  |  | > 5 | > 5 | did not significantly modify the slope of the curve | did not significantly inhibit the contractions |
| NC(=O)c1nn(-c2ccc(S(N)(=O)=O)cc2)c2c1CCc1sccc1-2 [Compound (XB), 1-(4′-sulphonamidophenyl)-4,5-dihydro-1H-thieno[2,3-g]indazol-3-carboxamide] |  |  |  |  | > 5 | > 5 | did not significantly modify the slope of the curve | did not significantly inhibit the contractions |
